Data on ten compounds can be found in patent US12180193B2, “Accelerating fibrosarcoma protein degrading compounds and associated methods of use” (Arvinas Operations, Inc., priority 2020, dated 2024).

The target in one experiment is T1, BRAF G466V (Homo sapiens, UniProt P15056, G466V).
T1 construct: expressed in transfected cells
Briefly: Cellular assay of target protein degradation, T-Rex 293 cells stably transfected with HA-BRAF G466V (HA immunofluorescence, high content imaging). Type of experiment: cell-based. Summed up: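 Doxycycline-induced (0.75 ng/mL) cells treated 24 h at 37 °C with compound from 30 nM to 3 pM (0.1% DMSO). After fixation and permeabilisation, HA-tagged BRAF G466V immunostained and quantified by high-content imaging. DC50 and Dmax (percent of control) derived.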

A further experiment concerns the target T2, BRAF V600E (Homo sapiens, UniProt P15056, V600E).
T2 construct: expressed in transfected cells
Briefly: Cellular assay of target protein degradation, T-Rex 293 cells stably transfected with HA-BRAF_V600E (HA immunofluorescence, high content imaging). Type of experiment: cell-based. Summed up: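 Doxycycline-induced (1 ng/mL) T-Rex 293 cells expressing HA-BRAF V600E treated 24 h at 37 °C with compound at 1 μM to 0.1 nM final in 0.1% DMSO. Remaining HA-tagged protein quantified by fixed-cell anti-HA immunofluorescence and high-content imaging; DC50 and Dmax (% of control) derived.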

Setting [1] is: half maximal degradation, T-Rex 293 HA-BRAF G466V; read-out: BRaf G466V DC50.
Setting [2] is: maximum degradation observed, T-Rex 293 HA-BRAF G466V.
Setting [3] is: half maximal degradation, T-Rex 293 HA-BRAF V600E; read-out: BRaf V600E DC50.
[4] abbreviates: maximum degradation observed, T-Rex 293 HA-BRAF V600E.

The structures appear in SMILES notation. Read-outs that look alike come from different tables or passages of the source. Bounds are passed on as bounds.

T2 sequence (P15056 whole entry V600E): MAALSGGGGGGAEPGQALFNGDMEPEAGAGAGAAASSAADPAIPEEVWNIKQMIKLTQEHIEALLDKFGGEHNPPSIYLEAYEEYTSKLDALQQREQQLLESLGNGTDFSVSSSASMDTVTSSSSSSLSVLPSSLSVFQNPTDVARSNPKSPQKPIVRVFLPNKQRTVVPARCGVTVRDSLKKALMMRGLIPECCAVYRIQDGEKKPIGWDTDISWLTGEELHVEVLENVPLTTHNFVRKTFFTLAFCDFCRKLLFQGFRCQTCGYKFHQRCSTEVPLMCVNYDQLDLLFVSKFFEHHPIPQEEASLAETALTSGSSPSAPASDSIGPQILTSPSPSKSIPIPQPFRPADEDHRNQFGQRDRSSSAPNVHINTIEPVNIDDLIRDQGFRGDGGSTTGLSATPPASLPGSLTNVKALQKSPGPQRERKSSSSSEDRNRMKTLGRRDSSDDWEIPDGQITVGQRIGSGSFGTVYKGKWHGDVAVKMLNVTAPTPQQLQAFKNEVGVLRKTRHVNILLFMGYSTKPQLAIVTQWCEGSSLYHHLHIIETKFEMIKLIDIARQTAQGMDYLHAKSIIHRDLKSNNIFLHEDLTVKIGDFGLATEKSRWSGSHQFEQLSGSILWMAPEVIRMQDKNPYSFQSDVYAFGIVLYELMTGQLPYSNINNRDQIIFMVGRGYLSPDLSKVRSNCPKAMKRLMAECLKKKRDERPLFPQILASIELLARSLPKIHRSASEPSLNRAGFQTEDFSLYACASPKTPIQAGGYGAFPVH
T1 sequence (P15056 whole entry G466V): as the sequence (P15056 whole entry V600E) above, with G466V, E600V counted along it

For `O=C1CCC(N2Cc3cc(CCCN4CC5(C4)CN(c4ccc(-c6cnc7[nH]cc(C(=O)c8c(F)ccc(NS(=O)(=O)N9CC[C@@H](F)C9)c8F)c7c6)cc4F)C5)ccc3C2=O)C(=O)N1` (stereo partly drawn) [Compound 310, (3R)-N-(3-{5-[4-(6-{3-[2-(2,6-dioxopiperidin-3-yl)-1-oxo-2,3-dihydro-1H-isoindol-5-yl]propyl}-2,6-diazaspiro[3.3]heptan-2-yl)-3-fluorophenyl]-1H-pyrrolo[2,3-b]pyridine-3-carbonyl}-2,4-difluorophenyl)-3-fluoropyrrolidine-1-sulfonamide], the results for the DC50 at BRAF G466V (setting [1]) and at BRAF V600E (setting [3]) were 1 to 10 nM and 5 to 50 nM, respectively. The Dmax (in general, the greatest extent of degradation seen) at BRAF G466V (setting [2]) is above 70%; on BRAF V600E (setting [4]) it was 35 to 70%.

Regarding `O=C1CCC(N2Cc3cc(N4CCC(CN5CC[C@@H]6[C@H](C5)CN6c5ccc(-c6cnc7[nH]cc(C(=O)c8c(F)ccc(NS(=O)(=O)N9CC[C@@H](F)C9)c8F)c7c6)cc5)CC4)ccc3C2=O)C(=O)N1` (stereo partly drawn) [Compound 311, (3R)-N-[3-(5-{4-[(1R,6R)-3-({1-[2-(2,6-dioxopiperidin-3-yl)-1-oxo-2,3-dihydro-1H-isoindol-5-yl]piperidin-4-yl}methyl)-3,7-diazabicyclo[4.2.0]octan-7-yl]phenyl}-1H-pyrrolo[2,3-b]pyridine-3-carbonyl)-2,4-difluorophenyl]-3-fluoropyrrolidine-1-sulfonamide], the DC50 (commonly the midpoint of the concentration-degradation curve) on BRAF G466V (setting [1]) lay in the range of 1 to 10 nM; at BRAF V600E (setting [3]), 5 to 50 nM. Besides, the Dmax is above 70% on BRAF G466V (setting [2]) and 35 to 70% at BRAF V600E (setting [4]).

With `O=C1CCC(N2Cc3cc(C4CCN(C[C@@H]5CCN(c6ccc(-c7cnc8[nH]cc(C(=O)c9c(F)ccc(NS(=O)(=O)N%10CC[C@@H](F)C%10)c9F)c8c7)cc6)C(=O)C5)CC4)ccc3C2=O)C(=O)N1` (stereo partly drawn) [Compound 312, (3R)-N-[3-(5-{4-[(4R)-4-({4-[2-(2,6-dioxopiperidin-3-yl)-1-oxo-2,3-dihydro-1H-isoindol-5-yl]piperidin-1-yl}methyl)-2-oxopiperidin-1-yl]phenyl}-1H-pyrrolo[2,3-b]pyridine-3-carbonyl)-2,4-difluorophenyl]-3-fluoropyrrolidine-1-sulfonamide], the values for the DC50 at BRAF G466V (setting [1]) and on BRAF V600E (setting [3]) were 1 to 10 nM and 50 to 500 nM, respectively. Besides, the Dmax at BRAF G466V (setting [2]) and on BRAF V600E (setting [4]) was above 70% in each case.

For `O=C1CCC(N2Cc3cc(N4CCC(CN5CCN(c6ccc(-c7cnc8[nH]cc(C(=O)c9c(F)ccc(NS(=O)(=O)N%10CC[C@@H](F)C%10)c9F)c8c7)cc6)CC(F)(F)C5)CC4)ccc3C2=O)C(=O)N1` (stereo partly drawn) [Compound 315, (3R)-N-{3-(5-{4-[4-({1-[2-(2,6-dioxopiperidin-3-yl)-1-oxo-2,3-dihydro-1H-isoindol-5-yl]piperidin-4-yl}methyl)-6,6-difluoro-1,4-diazepan-1-yl]phenyl}-1H-pyrrolo[2,3-b]pyridine-3-carbonyl)-2,4-difluorophenyl]-3-fluoropyrrolidine-1-sulfonamide], the DC50 on BRAF G466V (setting [1]) was above 30 nM; on BRAF V600E (setting [3]) it was above 500 nM.

Regarding `O=C1CCC(N2Cc3cc(N4CCC(CN5CC(C6(c7ccc(-c8cnc9[nH]cc(C(=O)c%10c(F)ccc(NS(=O)(=O)N%11CC[C@@H](F)C%11)c%10F)c9c8)cc7)CC6)C5)CC4)ccc3C2=O)C(=O)N1` (stereo partly drawn) [Compound 316, (3R)-N-{3-[5-(4-{1-[1-({1-[2-(2,6-dioxopiperidin-3-yl)-1-oxo-2,3-dihydro-1H-isoindol-5-yl]piperidin-4-yl}methyl)azetidin-3-yl]cyclopropyl}phenyl)-1H-pyrrolo[2,3-b]pyridine-3-carbonyl]-2,4-difluorophenyl}-3-fluoropyrrolidine-1-sulfonamide], the results for the DC50 on BRAF G466V (setting [1]) and at BRAF V600E (setting [3]) were 1 to 10 nM and 50 to 500 nM, respectively. For the same compound, the results for the Dmax at BRAF G466V (setting [2]) and on BRAF V600E (setting [4]) were above 70% and below 35%, respectively.

Turning to `O=C1CCC(N2Cc3cc(N4CCN(CCCCc5ccc(-c6cnc7[nH]cc(C(=O)c8c(F)ccc(NS(=O)(=O)N9CC[C@@H](F)C9)c8F)c7c6)cc5)CC4)ccc3C2=O)C(=O)N1` (stereo partly drawn) [Compound 317, (3R)-N-(3-{5-[4-(4-{4-[2-(2,6-dioxopiperidin-3-yl)-1-oxo-2,3-dihydro-1H-isoindol-5-yl]piperazin-1-yl}butyl)phenyl]-1H-pyrrolo[2,3-b]pyridine-3-carbonyl}-2,4-difluorophenyl)-3-fluoropyrrolidine-1-sulfonamide], the results for the DC50 on BRAF G466V (setting [1]) and on BRAF V600E (setting [3]) were 1 to 10 nM and 50 to 500 nM, respectively. The figures for the Dmax at BRAF G466V (setting [2]) and at BRAF V600E (setting [4]) were above 70% and 35 to 70%, respectively.

In the case of `O=C1CCC(N2Cc3cc(N4CCN(CCCCCc5ccc(-c6cnc7[nH]cc(C(=O)c8c(F)ccc(NS(=O)(=O)N9CC[C@@H](F)C9)c8F)c7c6)cc5)CC4)ccc3C2=O)C(=O)N1` (stereo partly drawn) [Compound 318, (3R)-N-(3-{5-[4-(5-{4-[2-(2,6-dioxopiperidin-3-yl)-1-oxo-2,3-dihydro-1H-isoindol-5-yl]piperazin-1-yl}penyl)phenyl]-1H-pyrrolo[2,3-b]pyridine-3-carbonyl}-2,4-difluorophenyl)-3-fluoropyrrolidine-1-sulfonamide], the DC50 at BRAF G466V (setting [1]) was in the range of 10 to 30 nM; at BRAF V600E (setting [3]), 50 to 500 nM. Moreover, the Dmax at BRAF G466V (setting [2]) and on BRAF V600E (setting [4]) was 35 to 70% throughout.

As to `O=C1CCC(N2Cc3cc(C4CCN(CC5CC6(C5)CN(c5ccc(-c7cnc8[nH]cc(C(=O)c9c(F)ccc(NS(=O)(=O)N%10CC[C@@H](F)C%10)c9F)c8c7)cc5F)C6)CC4)ccc3C2=O)C(=O)N1` (stereo partly drawn) [Compound 319, (3R)-N-[3-(5-{4-[6-({4-[2-(2,6-dioxopiperidin-3-yl)-1-oxo-2,3-dihydro-1H-isoindol-5-yl]piperidin-1-yl}methyl)-2-azaspiro[3.3]heptan-2-yl]-3-fluorophenyl}-1H-pyrrolo[2,3-b]pyridine-3-carbonyl)-2,4-difluorophenyl]-3-fluoropyrrolidine-1-sulfonamide], the figures for the Dmax on BRAF G466V (setting [2]) and at BRAF V600E (setting [4]) were above 70% and 35 to 70%, respectively. Moreover, the DC50 lay in the range of 1 to 10 nM at BRAF G466V (read-out: BRaf G466V DC50; half maximal degradation, T-Rex 293 HA-BRAF G466V) and 5 to 50 nM on BRAF V600E (read-out: BRaf V600E DC50; half maximal degradation, T-Rex 293 HA-BRAF V600E).

In the case of `O=C1CCC(N2Cc3cc(N4CC(CN5CCN(C6(c7ncc(-c8cnc9[nH]cc(C(=O)c%10c(F)ccc(NS(=O)(=O)N%11CC[C@@H](F)C%11)c%10F)c9c8)cn7)CC6)CC5)C4)ccc3C2=O)C(=O)N1` (stereo partly drawn) [Compound 320, (3R)-N-{3-[5-(2-{1-[4-({1-[2-(2,6-dioxopiperidin-3-yl)-1-oxo-2,3-dihydro-1H-isoindol-5-yl]azetidin-3-yl}methyl)piperazin-1-yl]cyclopropyl}pyrimidin-5-yl)-1H-pyrrolo[2,3-b]pyridine-3-carbonyl]-2,4-difluorophenyl}-3-fluoropyrrolidine-1-sulfonamide], the DC50 was in the range of 1 to 10 nM at BRAF G466V (setting [1]) and 50 to 500 nM at BRAF V600E (setting [3]). In addition, the Dmax at BRAF G466V (setting [2]) and at BRAF V600E (setting [4]) was 35 to 70% in each case.

Take `O=C1CCC(N2Cc3cc(CCCCN4CC5(C4)CN(c4ccc(-c6cnc7[nH]cc(C(=O)c8c(F)ccc(NS(=O)(=O)N9CC[C@@H](F)C9)c8F)c7c6)cc4)C5)ccc3C2=O)C(=O)N1` (stereo partly drawn) [Compound 321, (3R)-N-(3-{5-[4-(6-{4-[2-(2,6-dioxopiperidin-3-yl)-1-oxo-2,3-dihydro-1H-isoindol-5-yl]butyl}-2,6-diazaspiro[3.3]heptan-2-yl)phenyl]-1H-pyrrolo[2,3-b]pyridine-3-carbonyl}-2,4-difluorophenyl)-3-fluoropyrrolidine-1-sulfonamide]: the 50% degradation concentration (DC50) on BRAF G466V (setting [1]) lay within 1 to 10 nM; on BRAF V600E (setting [3]), 5 to 50 nM. The results for the Dmax at BRAF G466V (setting [2]) and on BRAF V600E (setting [4]) were above 70% and 35 to 70%, respectively.
